# Test results reported in patent publication US8735387B2, “Oxazolopyrimidines as Edg-1 receptor agonists” (Sanofi, priority 2008, dated 2014).
# Biological target: T1, human Edg-1 receptor (Homo sapiens, UniProt P21453)
# T1 construct: expressed in transfected cells; membrane preparation
# Test: GTP-γ-S assay using human Edg-1 receptors (scintillation proximity assay, membrane preparation from CHO Flp-In cell line)
# Type: biochemical
# Conditions: example compound at 10 μM; relative to 10 μM S1P; GTP-γ-S SPA, human Edg-1 membranes
# How it was run: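 Scintillation proximity GTP-γ-S binding assay measuring receptor activation. Membranes prepared from a CHO Flp-In line stably overexpressing N-terminally FLAG-tagged human Edg-1.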
# T1 sequence (P21453 whole entry): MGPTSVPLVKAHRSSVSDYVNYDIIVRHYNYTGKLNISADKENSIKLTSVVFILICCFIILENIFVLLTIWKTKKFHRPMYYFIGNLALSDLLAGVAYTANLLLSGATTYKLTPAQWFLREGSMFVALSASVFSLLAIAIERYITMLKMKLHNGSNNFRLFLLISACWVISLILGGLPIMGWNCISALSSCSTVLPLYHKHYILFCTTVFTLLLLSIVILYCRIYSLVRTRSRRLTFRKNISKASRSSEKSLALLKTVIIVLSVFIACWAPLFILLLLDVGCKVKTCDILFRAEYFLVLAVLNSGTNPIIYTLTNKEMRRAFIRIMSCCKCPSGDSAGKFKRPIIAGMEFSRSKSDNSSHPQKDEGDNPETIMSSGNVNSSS
row,SMILES,% Activation (Edg-1 receptor activation in percent of the activation by 10 μM S1P) [%]
1,CCOc1nc(Cc2ccc(Cl)cc2)nc2oc(-c3cc(C)c(O)c(C)c3)nc12 [Example 191],98
2,CCCOc1nc(Cc2ccc(Cl)cc2)nc2oc(-c3cc(C)c(OCC(O)CN(C)C)c(C)c3)nc12 (centres unmarked) [Example 192],60
3,CCCOc1nc(Cc2ccc(Cl)cc2)nc2oc(-c3cc(C)c(OCC(O)CN4CCOCC4)c(C)c3)nc12 (centres unmarked) [Example 193],114
4,Cc1cc(-c2nc3c(OC(C)C)nc(Cc4ccc(Cl)cc4)nc3o2)cc(C)c1OCC(O)CN1CCOCC1 (centres unmarked) [Example 194],98
5,CCCOc1nc(Cc2ccc(Cl)cc2)nc2oc(-c3ccc(Cl)nc3)nc12 [Example 201],68
6,CCCOc1nc(CN2CC[C@H](F)C2)nc2oc(-c3cccc(F)c3)nc12 [Example 202],109
7,CCCOc1nc(Cn2cnc(C#N)n2)nc2oc(-c3cccc(F)c3)nc12 [Example 203],79
8,CCCOc1nc(Cn2cncn2)nc2oc(-c3cccc(F)c3)nc12 [Example 204],79
9,CC(C)Oc1nc(CN2CCOCC2)nc2oc(-c3cccc(F)c3)nc12 [Example 205],115
10,CCCOc1nc(Cc2ccc(Cl)cc2)nc2oc(-c3cc(C)c(OCC(O)CNC4CCN(CC(C)C)CC4)c(C)c3)nc12 (centres unmarked) [Example 206],67
11,CCCOc1nc(Cc2ccc(Cl)cc2)nc2oc(-c3ccc(OCC(O)CN)c(Cl)c3)nc12 (centres unmarked) [Example 207],302
12,CCOc1nc(Cc2ccc(Cl)cc2)nc2oc(-c3cc(C)c(OCC(O)CNC(C)=O)c(C)c3)nc12 (centres unmarked) [Example 208],111
13,CCCOc1nc(Cc2ccc(Cl)cc2)nc2oc(-c3cc(C)c(OCC(O)CNCc4ccccc4)c(C)c3)nc12 (centres unmarked) [Example 209],110
14,CCCOc1nc(Cc2ccc(Cl)cc2)nc2oc(-c3ccc(OCC(O)CNCc4ccccc4)c(Cl)c3)nc12 (centres unmarked) [Example 210],94
15,CCCOc1nc(Cc2ccc(Cl)cc2)nc2oc(-c3ccc(OCC(O)CNC4CCCCC4)c(Cl)c3)nc12 (centres unmarked) [Example 211],112
16,CCCOc1nc(Cc2ccc(Cl)cc2)nc2oc(-c3cc(C)c(OCC(O)CNC(=O)CO)c(C)c3)nc12 (centres unmarked) [Example 212],78
17,CCCOc1nc(Cc2ccccc2)nc2oc(-c3cccc(OCCO)c3)nc12 [Example 213],101
18,CCCOc1nc(Cc2ccc(Cl)cc2)nc2oc(-c3cc(C)c(OCC(O)CNC(C)=O)c(C)c3)nc12 (centres unmarked) [Example 214],106
19,CCCOc1nc(Cc2ccccc2)nc2oc(-c3cccc(O)c3)nc12 [Example 215],96
20,CCCC(=O)NCC(O)COc1c(C)cc(-c2nc3c(OCC)nc(Cc4ccc(Cl)cc4)nc3o2)cc1C (centres unmarked) [Example 216],105
21,CCOc1nc(Cc2ccc(Cl)cc2)nc2oc(-c3cc(C)c(OCC(O)CNC(=O)CC(C)C)c(C)c3)nc12 (centres unmarked) [Example 217],78

row,SMILES,% Activation (Edg-1 receptor activation in percent of the activation by 10 μM S1P) [%]
1,CCCOc1nc(Cc2ccc(Cl)cc2)nc2oc(-c3ccc(OC)c(Cl)c3)nc12 [Example 218],42
2,CCCOc1nc(Cc2ccc(Cl)cc2)nc2oc(-c3ccc(OCC(=O)O)c(Cl)c3)nc12 [Example 219],107
3,CCCOc1nc(Cc2ccc(Cl)cc2)nc2oc(-c3cc(C)c(OCC(O)CNC(=O)CC(C)C)c(C)c3)nc12 (centres unmarked) [Example 220],69
4,CCOc1nc(Cc2ccc(Cl)cc2)nc2oc(-c3cc(C)c(OCC(O)CNCC(c4cccnc4)N(C)C)c(C)c3)nc12 (centres unmarked) [Example 221],84
5,CCCOc1nc(Cc2ccc(Cl)cc2)nc2oc(-c3cc(C)c(OCCCNCCS(N)(=O)=O)c(C)c3)nc12 [Example 223],92
6,CCCOc1nc(Cc2ccc(Cl)cc2)nc2oc(-c3cc(C)c(OCCCNCCC(=O)O)c(C)c3)nc12 [Example 224],113
7,CCCOc1nc(Cc2ccc(Cl)cc2)nc2oc(-c3cc(C)c(OCCCNCCO)c(C)c3)nc12 [Example 225],100
8,CCOc1nc(Cc2ccc(Cl)cc2)nc2oc(-c3cc(C)c(OCC(=O)N[C@@H](CO)C(=O)O)c(C)c3)nc12 [Example 226],98
9,CCCOc1nc(Cc2ccc(Cl)cc2)nc2oc(-c3cc(C)c(OCCCNCc4nnn[nH]4)c(C)c3)nc12 [Example 227],142
10,CCOc1nc(Cc2ccc(Cl)cc2)nc2oc(-c3cc(C)c(OCC(=O)N4CC(C(=O)O)C4)c(C)c3)nc12 [Example 228],107
11,CCCOc1nc(Cc2ccc(Cl)cc2)nc2oc(-c3cc(C)c(OCCCN[C@@H](CCSC)C(=O)OC)c(C)c3)nc12 [Example 229],70
12,CCCOc1nc(Cc2ccc(Cl)cc2)nc2oc(-c3cc(C)c(OCCCNCCC(=O)OC(C)(C)C)c(C)c3)nc12 [Example 230],101
13,CCCOc1nc(Cc2ccc(Cl)cc2)nc2oc(-c3cc(C)c(OCC(=O)N4CC[C@H](O)C4)c(C)c3)nc12 [Example 231],104
14,CCCOc1nc(Cc2ccc(Cl)cc2)nc2oc(-c3cc(C)c(OCC(=O)N4CC[C@@H](O)C4)c(C)c3)nc12 [Example 232],125
15,CCCOc1nc(Cc2ccc(Cl)cc2)nc2oc(-c3cc(C)c(OCC(=O)OCC)c(C)c3)nc12 [Example 233],79
16,CCOc1nc(Cc2ccc(Cl)cc2)nc2oc(-c3cc(C)c(OCC(=O)NCCN4CCOCC4)c(C)c3)nc12 [Example 234],106
17,CCCOc1nc(Cc2ccc(Cl)cc2)nc2oc(-c3cc(C)c(OCCc4c(C)noc4C)c(C)c3)nc12 [Example 235],59
18,CCOc1nc(Cc2ccc(Cl)cc2)nc2oc(-c3cc(C)c(OCC(O)CN4CCOCC4)c(C)c3)nc12 (centres unmarked) [Example 236],102
19,CCCOc1nc(Cc2ccc(Cl)cc2)nc2oc(-c3cc(C)c(OCC(O)CNCCC(=O)O)c(C)c3)nc12 (centres unmarked) [Example 237],115
20,CCOc1nc(Cc2ccc(Cl)cc2)nc2oc(-c3cc(C)c(OCC(O)CN(CC)CC)c(C)c3)nc12 (centres unmarked) [Example 238],71

# Same assay, conditions: example compound at 10 μM; relative to 10 μM S1P; GTP-γ-S SPA, human Edg-1 membranes; read-out: % Activation (Edg-1 receptor activation in percent of the activation by 10 μM S1P)
row,SMILES,activation at 10 µM [%]
1,"CCCOc1nc(Cc2ccc(Cl)cc2)nc2oc(-c3cc(C)c(OCC(O)CNC(=O)c4ccccc4)c(C)c3)nc12 (centres unmarked) [Example 195, N-(3-{4-[5-(4-Chloro-benzyl)-7-propoxy-oxazolo[5,4-d]pyrimidin-2-yl]-2,6-dimethyl-phenoxy}-2-hydroxy-propyl)-benzamide]",84
2,"CCOc1nc(Cc2ccc(Cl)cc2)nc2oc(-c3cc(C)c(OCC(O)CSc4nnc(C(C)C)[nH]4)c(C)c3)nc12 (centres unmarked) [Example 196, 1-{4-[5-(4-Chloro-benzyl)-7-ethoxy-oxazolo[5,4-d]pyrimidin-2-yl]-2,6-dimethyl-phenoxy}-3-(5-isopropyl-4H-[1,2,4]triazol-3-ylsulfanyl)-propan-2-ol]",83
3,"CCOc1nc(Cc2ccc(Cl)cc2)nc2oc(-c3cc(C)c(OCC(O)CS(=O)(=O)c4nnc(C(C)C)[nH]4)c(C)c3)nc12 (centres unmarked) [Example 197, 1-{4-[5-(4-Chloro-benzyl)-7-ethoxy-oxazolo[5,4-d]pyrimidin-2-yl]-2,6-dimethyl-phenoxy}-3-(5-isopropyl-4H-[1,2,4]triazole-3-sulfonyl)-propan-2-ol]",119
4,"CCCOc1nc(Cc2ccc(Cl)cc2)nc2oc(-c3cc(C)c(OCC(=O)O)c(C)c3)nc12 [Example 198, {4-[5-(4-Chloro-benzyl)-7-propoxy-oxazolo[5,4-d]pyrimidin-2-yl]-2,6-dimethyl-phenoxy}-acetic acid]",111
5,"CCCOc1nc(Cc2ccc(Cl)cc2)nc2oc(-c3cc(C)c(OCC(=O)NCC(=O)O)c(C)c3)nc12 [Example 199, (2-{4-[5-(4-Chloro-benzyl)-7-propoxy-oxazolo[5,4-d]pyrimidin-2-yl]-2,6-dimethyl-phenoxy}-acetylamino)-acetic acid]",112
6,"CCCOc1nc(Cc2ccc(Cl)cc2)nc2oc(-c3cc(C)c(OCCCN4CCOCC4)c(C)c3)nc12 [Example 200, 5-(4-Chloro-benzyl)-2-[3,5-dimethyl-4-(3-morpholin-4-yl-propoxy)-phenyl]-7-propoxy-oxazolo[5,4-d]pyrimidine]",79
